Experimental findings from patent publication US5350866A, “10-desacetoxytaxol derivatives” (Bristol-Myers Squibb Company, priority 1992, dated 1994) are described below.

The subject of assay [1] is HCT-116 human colon carcinoma cells. Description: In vitro cytotoxicity (XTT assay), HCT-116. The following applies: HCT-116, 72 h, read-out: IC50 HCT-116. For orientation: Formazan colour is commonly taken as a measure of viable cells.
Assay [2] deals with HCT-116/VM46 human colon carcinoma cells. Description: In vitro cytotoxicity (XTT assay), teniposide-resistant, multidrug resistance phenotype HCT-116/VM46.

SMILES strings stand for the structures.

Take `CC(=O)O[C@@]12CO[C@@H]1C[C@H](O)[C@@]1(C)C(=O)CC3=C(C)[C@@H](OC(=O)[C@H](O)[C@@H](NC(=O)c4ccccc4)c4ccccc4)C[C@@](O)([C@@H](OC(=O)c4ccccc4)[C@H]21)C3(C)C` [10-Desacetoxytaxol]: the IC50 in assay [1] came to 8 nM.
As to `CC(=O)O[C@H]1C(=O)[C@@]2(C)[C@H]([C@H](OC(=O)c3ccccc3)[C@]3(O)C[C@H](OC(=O)[C@H](O)[C@@H](NC(=O)c4ccccc4)c4ccccc4)C(C)=C1C3(C)C)[C@]1(OC(C)=O)CO[C@@H]1C[C@@H]2O` [Taxol], the IC50 in assay [1] turned out to be 4 nM; in assay [2] (Homo sapiens, HCT-116/VM46, 72 h, read-out: IC50 HCT-116/VM46), 440 nM. Besides, the “fold resistance relative to HCT116 cells” value in assay [2] (value in parenthesis, HCT-116/VM46 relative to HCT116 cells, 4320 min) is on record as 124.
